assay: Human plasma protein binding (equilibrium dialysis); assay type: in vitro ADME; conditions: dialysis 18 hours

Human plasma protein binding (% free)	Structure (SMILES)
23	C[C@@H]1Cc2c([nH]c3ccccc23)[C@@H](c2cc(OCCNCCCF)ccc2CO)N1CC(F)(F)F [Example 70, (4-(2-((3-fluoropropyl)amino)ethoxy)-2-((1R,3R)-3-methyl-2-(2,2,2-trifluoroethyl)-2,3,4,9-tetrahydro-1H-pyrido[3,4-b]indol-1-yl)phenyl)methanol]
0.42	COc1c(F)cc(OCCNCCCF)cc1[C@@H]1c2[nH]c3ccccc3c2C[C@@H](C)N1CC(F)(F)F [Example 27, 3-fluoro-N-(2-(3-fluoro-4-methoxy-5-((1R,3R)-3-methyl-2-(2,2,2-trifluoroethyl)-2,3,4,9-tetrahydro-1H-pyrido[3,4-b]indol-1-yl)phenoxy)ethyl)propan-1-amine]
<3.2	COc1c(F)cc(OCCNCCCF)c(F)c1[C@@H]1c2[nH]c3ccccc3c2C[C@@H](C)N1CC(F)(F)F [Example 29, N-(2-(2,5-difluoro-4-methoxy-3-((1R,3R)-3-methyl-2-(2,2,2-trifluoroethyl)-2,3,4,9-tetrahydro-1H-pyrido[3,4-b]indol-1-yl)phenoxy)ethyl)-3-fluoropropan-1-amine]
0.22	COc1ccc(OCCNCCCF)c(C)c1[C@@H]1c2[nH]c3ccccc3c2C[C@@H](C)N1CC(F)(F)F [Example 26, 3-fluoro-N-(2-(4-methoxy-2-methyl-3-((1R,3R)-3-methyl-2-(2,2,2-trifluoroethyl)-2,3,4,9-tetrahydro-1H-pyrido[3,4-b]indol-1-yl)phenoxy)ethyl)propan-1-amine]
1.7	Cc1c(OCCNCCCF)ncnc1[C@@H]1c2[nH]c3ccccc3c2C[C@@H](C)N1CC(F)(F)F [Example 114, 3-fluoro-N-(2-((5-methyl-6-((1S,3R)-3-methyl-2-(2,2,2-trifluoroethyl)-2,3,4,9-tetrahydro-1H-pyrido[3,4-b]indol-1-yl)pyrimidin-4-yl)oxy)ethyl)propan-1-amine]
0.61	C[C@@H]1Cc2c([nH]c3ccccc23)[C@@H](c2cc(OCCNCCCF)ccc2Cl)N1CC(F)(F)F [Example 22, N-(2-(4-chloro-3-((1R,3R)-3-methyl-2-(2,2,2-trifluoroethyl)-2,3,4,9-tetrahydro-1H-pyrido[3,4-b]indol-1-yl)phenoxy)ethyl)-3-fluoropropan-1-amine]
3.7	C[C@@H]1Cc2c([nH]c3ccccc23)[C@@H](c2cc(OCCNCCCF)ccc2C#N)N1CC(F)(F)F [Example 23, 4-(2-((3-fluoropropyl)amino)ethoxy)-2-((1R,3R)-3-methyl-2-(2,2,2-trifluoroethyl)-2,3,4,9-tetrahydro-1H-pyrido[3,4-b]indol-1-yl)benzonitrile]
2.2	C[C@@H]1Cc2c([nH]c3ccccc23)[C@@H](c2cccc(OCCNCCCF)c2C#N)N1CC(F)(F)F [Example 69, 2-(2-((3-fluoropropyl)amino)ethoxy)-6-((1R,3R)-3-methyl-2-(2,2,2-trifluoroethyl)-2,3,4,9-tetrahydro-1H-pyrido[3,4-b]indol-1-yl)benzonitrile]
0.10	CCc1ccc(OCCNCCCF)cc1[C@@H]1c2[nH]c3ccccc3c2C[C@@H](C)N1CC(F)(F)F [Example 21, N-(2-(4-ethyl-3-((1R,3R)-3-methyl-2-(2,2,2-trifluoroethyl)-2,3,4,9-tetrahydro-1H-pyrido[3,4-b]indol-1-yl)phenoxy)ethyl)-3-fluoropropan-1-amine]

Continued, molecule first:

Structure (SMILES)	Human plasma protein binding (% free)
Cc1c(OCCNCCCF)ccc(F)c1[C@@H]1c2[nH]c3ccccc3c2C[C@@H](C)N1CCC#N [Example 87, 3-((1R,3R)-1-(6-fluoro-3-(2-((3-fluoropropyl)amino)ethoxy)-2-methylphenyl)-3-methyl-1,3,4,9-tetrahydro-2H-pyrido[3,4-b]indol-2-yl)propanenitrile]	1.6
C[C@@H]1Cc2c([nH]c3ccccc23)[C@@](C)(c2cccc(OCCNCCCF)c2)N1CC(F)(F)F [Example 75, N-(2-(3-((1R,3R)-1,3-dimethyl-2-(2,2,2-trifluoroethyl)-2,3,4,9-tetrahydro-1H-pyrido[3,4-b]indol-1-yl)phenoxy)ethyl)-3-fluoropropan-1-amine]	0.08
Cc1ccc2[nH]c3c(c2c1)C[C@@H](C)N(CC(F)(F)CO)[C@@H]3c1c(F)ccc(OCCNCCCF)c1F [Example 63, 3-((1R,3R)-1-(2,6-difluoro-3-(2-((3-fluoropropyl)amino)ethoxy)phenyl)-3,6-dimethyl-1,3,4,9-tetrahydro-2H-pyrido[3,4-b]indol-2-yl)-2,2-difluoropropan-1-ol]	0.97
C[C@@H]1Cc2c([nH]c3ccccc23)[C@@H](c2c(F)ccc(OCCNCCCF)c2Cl)N1CC(C)(C)C(=O)O [Example 131, 3-((1R,3R)-1-(2-chloro-6-fluoro-3-(2-((3-fluoropropyl)amino)ethoxy)phenyl)-3-methyl-1,3,4,9-tetrahydro-2H-pyrido[3,4-b]indol-2-yl)-2,2-dimethylpropanoic acid]	32
C[C@@H]1Cc2c([nH]c3cc(F)ccc23)[C@@H](c2c(F)ccc(OCCNCCCF)c2F)N1CC(F)(F)CO [Example 61, 3-((1R,3R)-1-(2,6-difluoro-3-(2-((3-fluoropropyl)amino)ethoxy)phenyl)-7-fluoro-3-methyl-1,3,4,9-tetrahydro-2H-pyrido[3,4-b]indol-2-yl)-2,2-difluoropropan-1-ol]	2.0
C[C@@H]1Cc2c([nH]c3ccccc23)[C@@H](c2c(F)ccc(NCCNCCCF)c2F)N1CC(F)(F)F [Example 88, N1-(2,4-difluoro-3-((1R,3R)-3-methyl-2-(2,2,2-trifluoroethyl)-2,3,4,9-tetrahydro-1H-pyrido[3,4-b]indol-1-yl)phenyl)-N2-(3-fluoropropyl)ethane-1,2-diamine]	0.58
Cc1ccc2[nH]c3c(c2c1)C[C@@H](C)N(CC(F)(F)CO)[C@@H]3c1c(F)cnc(OCCNCCCF)c1F [Example 66, 3-((1R,3R)-1-(3,5-difluoro-2-(2-((3-fluoropropyl)amino)ethoxy)pyridin-4-yl)-3,6-dimethyl-1,3,4,9-tetrahydro-2H-pyrido[3,4-b]indol-2-yl)-2,2-difluoropropan-1-ol]	1.3
C[C@@H]1Cc2c([nH]c3ccc(F)cc23)[C@@H](c2c(F)ccc(OCCNCCCF)c2F)N1CC(F)(F)CO [Example 15, 3-((1R,3R)-1-(2,6-difluoro-3-(2-((3-fluoropropyl)amino)ethoxy)phenyl)-6-fluoro-3-methyl-1,3,4,9-tetrahydro-2H-pyrido[3,4-b]indol-2-yl)-2,2-difluoropropan-1-ol]	3.2
CC(CN1[C@H](c2c(Cl)ccc(OCCNCCCF)c2Cl)c2[nH]c3ccc(F)cc3c2C[C@H]1C)C(=O)O (single isomer, unassigned) [Example 130]	7.8
C[C@@H]1Cc2c([nH]c3ccccc23)[C@@H](c2c(Cl)ccc(OCCNCCCF)c2F)N1C[C@H](C)C(=O)O [Example 54, (S)-3-((1R,3R)-1-(6-chloro-2-fluoro-3-(2-((3-fluoropropyl)amino)ethoxy)phenyl)-3-methyl-1,3,4,9-tetrahydro-2H-pyrido[3,4-b]indol-2-yl)-2-methylpropanoic acid]	18
Cc1c(OCCNCCCF)ccc(F)c1[C@@H]1c2[nH]c3ccccc3c2CC(C)(C)N1C[C@H](C)C(=O)O [Example 134, (S)-3-((R)-1-(6-fluoro-3-(2-((3-fluoropropyl)amino)ethoxy)-2-methylphenyl)-3,3-dimethyl-1,3,4,9-tetrahydro-2H-pyrido[3,4-b]indol-2-yl)-2-methylpropanoic acid]	36
COc1ccc(O[C@H](C)CNCCCF)cc1[C@@H]1c2[nH]c3ccccc3c2C[C@@H](C)N1CC(F)(F)CO [Example 47, 2,2-difluoro-3-((1R,3R)-1-(5-(((R)-1-((3-fluoropropyl)amino)propan-2-yl)oxy)-2-methoxyphenyl)-3-methyl-1,3,4,9-tetrahydro-2H-pyrido[3,4-b]indol-2-yl)propan-1-ol]	6.1
C[C@@H]1Cc2c([nH]c3ccccc23)[C@@H](c2c(F)ccc(OCCNCCCF)c2F)N1CC1(S(C)(=O)=O)CC1 [Example 77, N-(2-(2,4-difluoro-3-((1R,3R)-3-methyl-2-((1-(methylsulfonyl)cyclopropyl)methyl)-2,3,4,9-tetrahydro-1H-pyrido[3,4-b]indol-1-yl)phenoxy)ethyl)-3-fluoropropan-1-amine]	5.5
C[C@@H]1Cc2c([nH]c3ccccc23)[C@@H](c2ccnc(OCCNCCCF)c2Cl)N1CC(F)(F)CO [Example 104, 3-((1R,3R)-1-(3-chloro-2-(2-((3-fluoropropyl)amino)ethoxy)pyridin-4-yl)-3-methyl-1,3,4,9-tetrahydro-2H-pyrido[3,4-b]indol-2-yl)-2,2-difluoropropan-1-ol]	2.8
COc1ccc(OCCNCCCF)cc1[C@@H]1c2[nH]c3ccc(F)cc3c2C[C@@H](C)N1CC(F)(F)CO [Example 46, 2,2-difluoro-3-((1R,3R)-6-fluoro-1-(5-(2-((3-fluoropropyl)amino)ethoxy)-2-methoxyphenyl)-3-methyl-1,3,4,9-tetrahydro-2H-pyrido[3,4-b]indol-2-yl)propan-1-ol]	2.4
C[C@@H]1Cc2c([nH]c3ccccc23)[C@@H](c2c(F)ccc(OCCN(C)CCCF)c2C(F)F)N1C[C@H](C)C(=O)O [Example 148, (S)-3-((1R,3R)-1-(2-(difluoromethyl)-6-fluoro-3-(2-((3-fluoropropyl)(methyl)amino)ethoxy)phenyl)-3-methyl-1,3,4,9-tetrahydro-2H-pyrido[3,4-b]indol-2-yl)-2-methylpropanoic acid]	10
Cc1c(NCCNCCCF)ccnc1[C@@H]1c2[nH]c3ccccc3c2C[C@@H](C)N1CC(F)(F)F [Example 95, N1-(3-fluoropropyl)-N2-(3-methyl-2-((1S,3R)-3-methyl-2-(2,2,2-trifluoroethyl)-2,3,4,9-tetrahydro-1H-pyrido[3,4-b]indol-1-yl)pyridin-4-yl)ethane-1,2-diamine]	4.6
